Results taken from publication PMC4426631, “Insect antimicrobial peptides show potentiating functional interactions against Gram-negative bacteria” (Proceedings of the Royal Society B: Biological Sciences, 2015).
Cf = 5(6)-carboxyfluorescein

Tests used:
[1] = tested on: E. coli strain JM83; test: E. coli permeabilization assay (β-galactosidase leakage); assay type: cell-based
Method: The membrane permeabilizing activities of AMPs were determined using E. coli strain JM83 on the basis of β-galactosidase activity leaking from the cytoplasm, as described in detail in the electronic supplementary material. Living bacteria incubated with medium only were used as a negative control and bacteria killed by treatment with 5 µM synthetic cecropin B (Sigma-Aldrich) were used as a positive control (100% permeabilization). Before setting the perforation level of the positive control to 100%, the perforation value obtained for the negative control was subtracted from all other measurements. All assays were carried out three times, each time in triplicate. The results were presented as means ± s.d. (n = 3) based on statistical analysis using Student's t-test. […]
i) Peptide synthesis and modification.
The peptide sequences shown in Tabl es S1 an d S4 were selected according to their repo rted structural and functional properties, synthesized and purified to >95%. […]
The membran e p ermeabilizing activities of AMPs were determined using E. coli strain JM83 on the basis of β-gal actosidase activit y leakin g from the c ytoplasm. […] The samples were incubated at 37°C for 90 min and the absorbance was measured at 405 nm , which is proportional to the amount of released β-gal act osidase. […]

[2] = tested on: E. coli strain D22; set-up: method as in PMID 9219367; conditions: E. coli strain D22, which has a defective cell envelope; ref [46]; cited from earlier work
Text: In the original report, the authors used E. coli strain D22, which has a defective cell envelope.

abaecin: proline-rich peptide abaecin, species version not specified at the place (Cf-FVPYNPPRPGQSKPFPSFPGHGPFNPKIQWPYPLPNPGH-NH2)
perforation of the bacterial envelope, abaecin alone ([1]; 20 µM abaecin, pH 6.8 phosphate buffer, 45 min, 37°C, 405 nm, relative to 5 µM cecropin B = 100%, n = 3): approximately 4.8% | increase in membrane permeability, in words ([1]; peptide alone): only marginally increased | antibacterial activity [2]: antibacterial activity was demonstrated
